The source of these data is publication PMC10535741, “Styrylpyridinium Derivatives for Fluorescent Cell Imaging” (Pharmaceuticals, 2023).

Data set [1] relates to MH-22A (mouse hepatocarcinoma). Kind of data set: MTT cytotoxicity assay, MH-22A. In kind it is cell-based. Conditions: for IC50: Mus musculus, read-out: IC50 (µg/mL) MH-22A. Here is the method: (§1) The evaluation of the in vitro cytotoxicity (IC50, half maximal inhibitory concentration) of the abovementioned compounds and their structural derivatives was assessed using the standard colorimetric 3-(4,5-dimethylthiazol-2-yl)-2,5-diphenyltetrazolium bromide (MTT) assay on two monolayer tumour cell lines, namely HT-1080 (human connective tissue fibrosarcoma) and MH-22A (mouse hepatocarcinoma). Additionally, the impact of the compound on non-cancerous “normal” cells—mouse fibroblasts (NIH3T3)—was estimated in order to measure the basal toxicity (LD50, median lethal dose). The obtained results were used for investigation of the structure–activity relationships and exploration of the effect of substituents on cellular response and toxicity. The estimated LD50 gives information regarding the compound properties and could potentially be used to select promising compounds by providing a starting dose for in vivo experiments.
The HT-1080 (human connective tissue fibrosarcoma, ATCC® CCL-121™), MH-22A (mouse hepatocarcinoma, ECACC Cat. No. 96121721), A-549 (human lung carcinoma, ATCC® CCL-185™), NIH3T3 (Swiss Albino mouse embryo fibroblast, ECACC Cat. No. 93061524), Hek293 (human embryonic kidney, ATCC® CRL-1573™), BHK-21 (Syrian hamster kidney, ATCC® CCL-10™), A-431 (human epidermoid carcinoma, ATCC® CRL-1555™), Saos-2 (human osteosarcoma, ATCC® HTB-85™), HeLa (human epitheloid cervix carcinoma, ATCC® CCL-2™), U937 (human myeloid leukaemia, ATCC® CRL-1593.2™), C6 (rat glioma, ATCC® CCL-107™), and B16-F10 (murine melanoma, ATCC® CRL-6475™) cell lines were obtained from the American Type Culture Collection (ATCC) and European Collection of Authenticated Cell Cultures (ECACC).
HT-1080, MH-22A, A-549, NIH3T3, BHK-21, A-431, HeLa, and B16-F10 cells were cultured in Dulbecco’s Modified Eagle’s Medium (DMEM) with 2 mM glutamine and 10% foetal bovine serum (FBS). Hek293 cells were cultured in Eagle’s Minimum Essential Medium with 10% foetal bovine serum. U937 cells were cultured in RPMI-1640 Medium with 2 mM glutamine and 10% foetal bovine serum. C6 cells were cultured in Ham’s F12 Medium with 2 mM glutamine and 10% foetal bovine serum. Saos-2 cells were cultured in McCoy’s 5a Medium with 2 mM glutamine and 10% foetal bovine serum. The cells were incubated at 37 °C with 5% CO2, 95% air, and complete humidity. Once ~90% confluence was reached, they were detached using 0.05% trypsin/EDTA and counted. The cells were plated at optimally determined densities for the logarithmic phase of growth. These cells were then suspended at a concentration of 4000 cells/well for HT-1080, MH-22A, A-549, NIH3T3, BHK-21, A-431, HeLa, B16-F10, Hek293, and Saos-2 cells and a concentration of 9000 cells/well for U937, C6, Hek293, and GM08402 cells and added onto a 96-well plate. For background absorption, some wells remained cell free, i.e., as a blank control. Cells were incubated for 72 h at 37 °C and 5% CO2 where they were exposed to a media containing serial dilutions of the investigated compounds (n = 3). Cell viability was measured using the 3-(4,5-dimethylthiazol-2-yl)-2,5-diphenyl-tetrazolium bromide (MTT) assay. In brief, after incubating with compounds, the culture medium was removed and fresh medium with 0.2 mg/mL MTT was added to each well of the plate. After incubation (3 h, 37 °C, 5% CO2), the medium with MTT solution was removed and replaced with 200 µL DMSO and 25 µL Sorenson’s glycine buffer (glycine 0.1 M, NaCl 0.1 M, pH: 10.5 with 0.1 M NaOH). The plate was shaken for 15 min at room temperature and the optical density (OD) of the wells was determined using a multichannel spectrophotometer (Thermo Scientific Multiskan EX) at 540 nm. The quantity of the control cells was taken in calculations as 100%. The IC50 value was calculated using the program Graph Pad Prism® 3.0.

A short description of data set [2]: Basal cytotoxicity, neutral red uptake (NRU) assay, with LD50 estimated from IC50. In kind it is cell-based. To be noted: mouse. Here is the method:
as §1
To assess basal cytotoxicity, the neutral red uptake (NRU) assay was conducted following a modified version of the standard protocol of Stokes’ [71], as validated by the NICEATM-ECVAM study. The NRU cytotoxicity assay determines the ability of viable cells to incorporate and bind a supravital dye, neutral red (NR).
NIH3T3 cells (9000 cells/well) were cultured in 96-well plates in DMEM medium supplemented with 5% FBS for 24 h. Subsequently, the cells were exposed to the test compounds over a range of seven concentrations (1000 µg/mL, 316 µg/mL, 100 µg/mL, 31 µg/mL, 10 µg/mL, 3.0 µg/mL, and 1.0 µg/mL) for 24 h. Untreated cells were used as a control. After the incubation period, the medium was removed from all plates and a solution of NR was added (250 µL, 0.05 mg/mL NR in DMEM 24 h pre-incubated at 37 °C and then filtered before use through a 0.22 µm syringe filter). The plates were incubated for 3 h, followed by three washes with phosphate-buffered saline (PBS). The cells were then treated with a mixture of ethanol (50%) and water (49%) supplemented with 1% acetic acid. The absorbance of NR was measured using a spectrophotometer multiplate reader (Infinite M1000; Tecan Austria GmbH, Salzburg, Austria) at 540 nm. The optical density (OD) was then calculated using the following formula: ODtreated cells×100/ODcontrol cells.
The IC50 values were calculated using the program Graph Pad Prism® 3.0.
In vitro test results were employed to estimate the starting dose for acute oral systemic toxicity tests in rodents (LD50). The LD50 value was calculated using the in vitro IC50 value and a following formula: logLD50(mM/kg)=0.439×logIC50(mM)+0.621
The value was then converted to mg/kg and the compounds classified into four toxicity categories. Category 1 (highly toxic): LD50 ≤ 5 mg/kg; Category 2 (moderately toxic): 5 < LD50 ≤ 50 mg/kg; Category 3 (slightly toxic): 50 < LD50 ≤ 300 mg/kg; Category 4 (practically non-toxic): 300 < LD50 ≤ 2000 mg/kg.

The mark [3] stands for this setting: estimated from in vitro NRU IC50 (24 h), read-out: Basal cytotoxicity (NIH3T3) LD50 mM/kg.
The mark [4] stands for this setting: estimated from in vitro NRU IC50 (24 h) by log LD50 = 0.439 x log IC50 + 0.621, read-out: Basal Cytotoxicity (NIH3T3) LD50.

SMILES strings stand for the structures. Read-outs that look alike come from different tables or passages of the source.

On to `CCCCCCCCCCCC[n+]1ccc(C=Cc2cc(OC)c(OC)c(OC)c2)cc1.[Br-]` [Compound 6a, 4-(3,4,5-trimethoxystyryl)-N-dodecylpyridinium bromide], for which, in data set [1] (6a versus 6b), the “times more toxic than 6b in MH-22A” value was 2.4 times. Further, the IC50 in data set [1] (72 h treatment, MTT) was 0.45 ± 0.08 µg/mL. For the same molecule, in data set [1] (ratio of IC50 values), the “times lower cytotoxicity of 6a compared with 6d, MH-22A” value was found to be 8.5 times. The LD50 at 24 h is 249 ± 3 mg/kg in data set [2] (NIH3T3 cells, estimated from in vitro NRU IC50 (24 h) by log LD50 = 0.439 x log IC50 + 0.621, read-out: Basal Cytotoxicity (NIH3T3) LD50) and 500 µmol/kg in data set [2] (setting [3]).
As to `CCCCCCCCCCCCCCCC[n+]1ccc(C=Cc2cc(OC)c(OC)c(OC)c2)cc1.[Br-]` [Compound 6b], in data set [1] (72 h treatment, MTT), the “IC50 (µg/mL) MH-22A” value worked out at 1.08 ± 0.06 µg/mL.
Regarding `CCCCCCCCCCCCCCCC[n+]1ccc(C=CC=Cc2ccc(OC)cc2)cc1.[Br-]` [Compound 6c, 1-hexadecyl-4-(4-(4-methoxyphenyl)buta-1,3-dien-1-yl)pyridin-1-ium bromide], the IC50 in data set [1] (72 h treatment, MTT) was 0.13 ± 0.03 µg/mL. Also, the results for the LD50 at 24 h in data set [2] (setting [4]) and in data set [2] (setting [3]) were 85 ± 7 mg/kg and 160 µmol/kg, respectively.
For the molecule `CCCCCCCCCCCC[n+]1ccc(C=Cc2cc3c4c(c2)CCCN4CCC3)cc1.[Br-]` [Compound 6d, 1-dodecyl-4-(2-(2,3,6,7-tetrahydro-1H,5H-pyrido[3,2,1-ij]quinolin-9-yl)vinyl)pyridin-1-ium bromide], the “times higher cytotoxicity towards MH-22A than compound 7a” value in data set [1] (6d versus 7a) stood at 80 times. The IC50 in data set [1] (72 h treatment, MTT) was 0.05 ± 0.003 µg/mL. Also, the figures for the LD50 at 24 h in data set [2] (setting [4]) and in data set [2] (setting [3]) were 169 ± 18 mg/kg and 300 µmol/kg, respectively.
`CCCCCCCCCCCCCCCC[n+]1ccc(C=CC=Cc2cc3c4c(c2)CCCN4CCC3)cc1.[Br-]` [Compound 6e, 1-hexadecyl-4-(4-(2,3,6,7-tetrahydro-1H,5H-pyrido[3,2,1-ij]quinolin-9-yl)buta-1,3-dien-1-yl)pyridin-1-ium bromide]: in data set [1] (72 h treatment, MTT), the IC50 is 0.4 ± 0.06 µg/mL. In data set [1] (selectivity MH-22A versus Hek-293), the “times more toxic to MH-22A than against non-cancerous Hek-293” value is on record as 3.75 times. The “times more cytotoxic to MH-22A than against non-cancerous NIH3T3” value in data set [1] (selectivity MH-22A versus NIH3T3) is “eight”. Moreover, the LD50 at 24 h in data set [2] (setting [4]) is 477 ± 11 mg/kg; in data set [2] (setting [3]), 800 µmol/kg.
As to `C(=C\c1cc2c3c(c1)CCCN3CCC2)/c1cc[n+](CCC[n+]2ccc(/C=C/c3cc4c5c(c3)CCCN5CCC4)cc2)cc1` [Compound 7a], the IC50 in data set [1] (72 h) came to 4 ± 0.3 µg/mL. Moreover, the LD50 at 24 h in data set [2] (setting [4]) is 1100 ± 20 mg/kg.
`C(C=Cc1cc2c3c(c1)CCCN3CCC2)=Cc1cc[n+](CCC[n+]2ccc(C=CC=Cc3cc4c5c(c3)CCCN5CCC4)cc2)cc1.[Br-].[Br-]` [Compound 7b, 1,1′-(propane-1,3-diyl)bis(4-(4-(2,3,6,7-tetrahydro-1H,5H-pyrido[3,2,1-ij]quinolin-9-yl)buta-1,3-dien-1-yl)pyridin-1-ium) dibromide]: the IC50 in data set [1] (72 h treatment, MTT) was 5 ± 0.6 µg/mL. Also, the LD50 at 24 h in data set [2] (setting [4]) was 857 ± 13 mg/kg.
